Laboratory results reported in patent publication US11155525B2 (Sanford Burnham Prebys Medical Discovery Institute, priority 2015, dated 2021).

Target: T1, human apelin receptor (Homo sapiens, UniProt P35414)
T1 construct: host or cells: CHO cells
T1 sequence (P35414 1-380): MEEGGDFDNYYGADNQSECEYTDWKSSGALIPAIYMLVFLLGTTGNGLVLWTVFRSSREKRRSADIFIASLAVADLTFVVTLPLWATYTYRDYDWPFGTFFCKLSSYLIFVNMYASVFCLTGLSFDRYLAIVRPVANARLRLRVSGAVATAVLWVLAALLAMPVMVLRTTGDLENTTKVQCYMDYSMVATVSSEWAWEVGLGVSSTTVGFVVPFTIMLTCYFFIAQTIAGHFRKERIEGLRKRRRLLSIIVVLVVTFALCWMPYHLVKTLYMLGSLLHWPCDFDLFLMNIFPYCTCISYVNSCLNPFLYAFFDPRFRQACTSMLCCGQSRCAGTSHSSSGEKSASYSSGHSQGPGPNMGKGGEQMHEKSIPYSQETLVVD
Test: Measurement of apelin receptor agonist activity (cell-based assay determining the amount of intracellular cAMP)
Details: CHO cells stably expressing the human apelin receptor, Forskolin 10 μM, 30 minutes, 100% efficacy = [Pyr1]-apelin-13 0.300 μM, concentration giving 50% efficacy
Description: Measurement of Apelin Receptor Agonist Activity
The apelin receptor agonist activity of the compound represented by formula (I) or (II) of the present invention was measured by cell-based assay for determining the amount of intracellular cAMP.
CHO cells (DiscoveRx Corp.) stably expressing the human apelin receptor were inoculated to wells of a microtiter plate and cultured overnight at 37° C. under conditions of 5% CO2.
Each test compound and Forskolin were added to the wells at the same time. Specifically, the test compound dissolved in DMSO was diluted with a Forskolin-containing buffer [DMEM/F-12, HEPES, no phenol red (#11039, GIBCO)] to prepare a mixed solution containing the test compound at a final concentration of […] (common ratio: 3, serial dilution: 11), Forskolin at a final concentration of 10 μM, and DMSO at a final concentration of 0.3% v/v, which was then added to the wells (N═4).
After 30 minutes, the cells were lysed, and HitHunter cAMP XS+ Assay #90-0075L (DiscoveRx Corp.) was added to the cell lysate. The mixture was left overnight, and the resulting chemiluminescence signals were then detected using Analyst GT (Molecular Devices LLC.) to determine the amount of cAMP.
The amount of cAMP determined by the addition of a positive control [Pyr1]-apelin-13 (final concentration: 0.300 μM) and Forskolin (final concentration: 10 μM) at the same time was used as an index to define 100% efficacy. The amount of cAMP determined by the addition of Forskolin (final concentration: 10 μM) alone was used as an index to define 0% efficacy.
A dose response curve was prepared from the final concentration of the test compound and the determined amount of cAMP using Sigmaplot 12.0.

Structure (SMILES) | EC50
COC(=O)C(Sc1nnc(-c2ccc(C)o2)n1-c1c(OC)cccc1OC)c1ccccn1 (racemic) [Example 89, Methyl {[4-(2,6-dimethoxyphenyl)-5-(5-methylfuran-2-yl)-4H-1,2,4-triazol-3-yl]sulfanyl}(pyridin-2-yl)acetate] | 0.261 µM
COc1cccc(OC)c1-n1c(S)nnc1-c1ccc(C)o1 [Example 1, 4-(2,6-Dimethoxyphenyl)-5-(5-methylfuran-2-yl)-4H-1,2,4-triazole-3-thiol] | 0.031 µM
COc1cccc(OC)c1-n1c(SCc2cc(=O)n3cc(C)ccc3n2)nnc1-c1ccc(C)o1 [Example 2, 2-({[4-(2,6-Dimethoxyphenyl)-5-(5-methylfuran-2-yl)-4H-1,2,4-triazol-3-yl]sulfanyl}methyl)-7-methyl-4H-pyrido[1,2-a]pyrimidin-4-one] | 0.001 µM
COc1cccc(OC)c1-n1c(SCc2cc(=O)n3cc(Cl)ccc3n2)nnc1-c1ccc(C)o1 [Example 3, 7-Chloro-2-({[4-(2,6-dimethoxyphenyl)-5-(5-methylfuran-2-yl)-4H-1,2,4-triazol-3-yl]sulfanyl}methyl)-4H-pyrido[1,2-a]pyrimidin-4-one] | 0.002 µM
CCOC(=O)CSc1nnc(-c2ccc(C)o2)n1-c1c(OC)cccc1OC [Example 4, Ethyl {[4-(2,6-dimethoxyphenyl)-5-(5-methylfuran-2-yl)-4H-1,2,4-triazol-3-yl]sulfanyl}acetate] | 0.122 µM
COc1cccc(OC)c1-n1c(SCC(=O)O)nnc1-c1ccc(C)o1 [Example 5, {[4-(2,6-Dimethoxyphenyl)-5-(5-methylfuran-2-yl)-4H-1,2,4-triazol-3-yl]sulfanyl}acetic acid] | 0.026 µM
COc1cccc(OC)c1-n1cnnc1-c1ccc(C)o1 [Example 6, 4-(2,6-Dimethoxyphenyl)-3-(5-methylfuran-2-yl)-4H-1,2,4-triazole] | 0.703 µM
COc1cccc(OC)c1-n1c(CO)nnc1-c1ccc(C)o1 [Example 7, [4-(2,6-Dimethoxyphenyl)-5-(5-methylfuran-2-yl)-4H-1,2,4-triazol-3-yl]methanol] | 0.815 µM
CCOC(=O)/C=C/c1nnc(-c2ccc(C)o2)n1-c1c(OC)cccc1OC [Example 8, Ethyl (2E)-3-[4-(2,6-dimethoxyphenyl)-5-(5-methylfuran-2-yl)-4H-1,2,4-triazol-3-yl]prop-2-enoate] | 1.57 µM
COc1cccc(OC)c1-n1c(/C=C/C(=O)O)nnc1-c1ccc(C)o1 [Example 9, (2E)-3-[4-(2,6-Dimethoxyphenyl)-5-(5-methylfuran-2-yl)-4H-1,2,4-triazol-3-yl]prop-2-enoic acid] | 0.018 µM
COc1cccc(OC)c1-n1c(S)nnc1-c1cccs1 [Example 10, 4-(2,6-Dimethoxyphenyl)-5-(thiophen-2-yl)-4H-1,2,4-triazole-3-thiol] | 0.192 µM
COc1cccc(OC)c1-n1c(SCc2cc(=O)n3cc(C)ccc3n2)nnc1-c1cccs1 [Example 11] | 0.005 µM
CCOC(=O)CCc1nnc(-c2ccc(C)o2)n1-c1c(OC)cccc1OC [Example 12, Ethyl 3-[4-(2,6-dimethoxyphenyl)-5-(5-methylfuran-2-yl)-4H-1,2,4-triazol-3-yl]propanoate] | 0.701 µM
COc1cccc(OC)c1-n1c(CCC(=O)O)nnc1-c1ccc(C)o1 [Example 13, 3-[4-(2,6-Dimethoxyphenyl)-5-(5-methylfuran-2-yl)-4H-1,2,4-triazol-3-yl]propanoic acid] | 0.159 µM
COc1cccc(OC)c1-n1c(SCc2cc(=O)[nH]c(=O)[nH]2)nnc1-c1ccc(C)o1 [Example 14, 6-({[4-(2,6-Dimethoxyphenyl)-5-(5-methylfuran-2-yl)-4H-1,2,4-triazol-3-yl]sulfanyl}methyl)pyrimidine-2,4(1H,3H)-dione] | 0.424 µM
COc1cccc(OC)c1-n1c(SCc2cc(=O)n(C)c(=O)n2C)nnc1-c1ccc(C)o1 [Example 15, 6-({[4-(2,6-Dimethoxyphenyl)-5-(5-methylfuran-2-yl)-4H-1,2,4-triazol-3-yl]sulfanyl}methyl)-1,3-dimethylpyrimidine-2,4(1H,3H)-dione] | 0.164 µM
COc1cccc(OC)c1-n1c(SCc2cc(=O)n3nccc3[nH]2)nnc1-c1ccc(C)o1 [Example 16, 5-({[4-(2,6-Dimethoxyphenyl)-5-(5-methylfuran-2-yl)-4H-1,2,4-triazol-3-yl]sulfanyl}methyl)pyrazolo[1,5-a]pyrimidin-7(4H)-one] | 0.314 µM

Structure (SMILES) | EC50
CCc1nnc(-c2ccc(C)o2)n1-c1c(OC)cccc1OC [Example 17, 4-(2,6-Dimethoxyphenyl)-3-ethyl-5-(5-methylfuran-2-yl)-4H-1,2,4-triazole] | 1.41 µM
COc1cccc(OC)c1-n1c(SCc2cc[nH]c(=O)c2)nnc1-c1ccc(C)o1 [Example 18, 4-({[4-(2,6-Dimethoxyphenyl)-5-(5-methylfuran-2-yl)-4H-1,2,4-triazol-3-yl]sulfanyl}methyl)pyridin-2(1H)-one] | 0.561 µM
COc1cccc(OC)c1-n1c(/C=C/C(N)=O)nnc1-c1ccc(C)o1 [Example 19, (2E)-3-[4-(2,6-Dimethoxyphenyl)-5-(5-methylfuran-2-yl)-4H-1,2,4-triazol-3-yl]prop-2-enamide] | 0.171 µM
COc1cccc(OC)c1-n1c(/C=C/C(C)=O)nnc1-c1ccc(C)o1 [Example 20, (3E)-4-[4-(2,6-Dimethoxyphenyl)-5-(5-methylfuran-2-yl)-4H-1,2,4-triazol-3-yl]but-3-en-2-one] | 0.729 µM
COc1cccc(OC)c1-n1c(/C=C/C(=O)N(C)C)nnc1-c1ccc(C)o1 [Example 21, (2E)-3-[4-(2,6-Dimethoxyphenyl)-5-(5-methylfuran-2-yl)-4H-1,2,4-triazol-3-yl]-N,N-dimethylprop-2-enamide] | 0.539 µM
COc1cccc(OC)c1-n1c(SCCCC(=O)O)nnc1-c1ccc(C)o1 [Example 22, 4-{[4-(2,6-Dimethoxyphenyl)-5-(5-methylfuran-2-yl)-4H-1,2,4-triazol-3-yl]sulfanyl}butanoic acid] | 0.087 µM
COc1cccc(OC)c1-n1c(/C=C/C(C)O)nnc1-c1ccc(C)o1 (stereo not drawn) [Example 23, (3E)-4-[4-(2,6-Dimethoxyphenyl)-5-(5-methylfuran-2-yl)-4H-1,2,4-triazol-3-yl]but-3-en-2-ol] | 0.271 µM
COc1cccc(OC)c1-n1c(CCC(C)=O)nnc1-c1ccc(C)o1 [Example 24, 4-[4-(2,6-Dimethoxyphenyl)-5-(5-methylfuran-2-yl)-4H-1,2,4-triazol-3-yl]butan-2-one] | 0.751 µM
COc1cccc(OC)c1-n1c(CCC(C)O)nnc1-c1ccc(C)o1 (stereo not drawn) [Example 25, 4-[4-(2,6-Dimethoxyphenyl)-5-(5-methylfuran-2-yl)-4H-1,2,4-triazol-3-yl]butan-2-ol] | 1.72 µM
COc1cccc(OC)c1-n1c(SCC(=O)O)nnc1-c1ccc(Br)o1 [Example 26, {[5-(5-Bromofuran-2-yl)-4-(2,6-dimethoxyphenyl)-4H-1,2,4-triazol-3-yl]sulfanyl}acetic acid] | 0.057 µM
COc1cccc(OC)c1-n1c(SCC(=O)O)nnc1-c1cccnc1 [Example 27, {[4-(2,6-Dimethoxyphenyl)-5-(pyridin-3-yl)-4H-1,2,4-triazol-3-yl]sulfanyl}acetic acid] | 2.87 µM
COc1cccc(OC)c1-n1c(SCC(=O)O)nnc1-c1ccccc1 [Example 28, {[4-(2,6-Dimethoxyphenyl)-5-phenyl-4H-1,2,4-triazol-3-yl]sulfanyl}acetic acid] | 1.42 µM
CCCCc1nnc(SCC(=O)O)n1-c1c(OC)cccc1OC [Example 29, {[5-Butyl-4-(2,6-dimethoxyphenyl)-4H-1,2,4-triazol-3-yl]sulfanyl}acetic acid] | 0.812 µM
COc1cccc(OC)c1-n1c(SCC(=O)O)nnc1-c1cccs1 [Example 30, {[4-(2,6-Dimethoxyphenyl)-5-(thiophen-2-yl)-4H-1,2,4-triazol-3-yl]sulfanyl}acetic acid] | 0.332 µM
CCc1cccc(CC)c1-n1c(SCC(=O)O)nnc1-c1ccc(C)o1 [Example 31, {[4-(2,6-Diethylphenyl)-5-(5-methylfuran-2-yl)-4H-1,2,4-triazol-3-yl]sulfanyl}acetic acid] | 0.174 µM
Cc1ccc(-c2nnc(SCC(=O)O)n2-c2c(Cl)cccc2Cl)o1 [Example 32, {[4-(2,6-Dichlorophenyl)-5-(5-methylfuran-2-yl)-4H-1,2,4-triazol-3-yl]sulfanyl}acetic acid] | 3.98 µM
